Article PMC6609034, “Unraveling the role of the secretor antigen in human rotavirus attachment to histo-blood group antigens” (PLoS Pathogens, 2019)

Experiments:
[1] = test system: rotavirus Wa strain (G1P[8]) in MA104 cells; experiment: Blocking of rotavirus infection in MA104 cells (fluorescent focus assay); format: cell-based, human rotavirus; settings: sugar at 5 mg/mL
Method: The G1P[8] Wa strain was tested on MA104 cells. The sugars LNB, GNB, GlcNAc, GalNAc, D-galactose and L-fucose were tested for their effect on rotavirus infectivity. The oligosaccharides were previously heat sterilized at 99°C for 10 min and then dissolved in serum-free DMEM containing 1 μg/ml trypsin. Serum-free DMEM containing […] oligosaccharide was used as a control in each experiment.
The effect of different mono- and disaccharides on rotavirus infectivity was assessed through standard fluorescent focus assays on MA104 cells. The dilution of Wa virus stocks that yielded ~150 focus-forming units/well was first established. Then, sugars were added during virus inoculation at a final concentration of 5 mg/ml, incubated for 1 hour, and unbound virus was removed by washing with FBS-DMEM. The cells were allowed to be infected for 16h, washed once with PBS and fixed with 100% methanol. A mouse anti-VP6 primary antibody (1:50 dilution in PBS containing 3% BSA) was added and incubation proceeded for 30 min at room temperature with gentle rotation. […] Individual fluorescence foci were counted on an inverted fluorescence microscope with a FITC-compatible filter. […] Virus titer measured in the absence of oligosaccharides was considered to be 100% infectivity, and changes in virus titer in the presence of sugars were expressed as percentage of infectivity compared with no sugar treatment.

[2] = test system: VP8* P[8]c binding to the H1 antigen; experiment: Binding blocking assay, immobilized H1 antigen; design: species or system human rotavirus; settings: soluble sugar at 20 mM
Method: (§1) To confirm the binding of the VP8* from the P[8] genotype to the H type-1 precursor LNB, a blocking assay was performed using soluble LNB and its related disaccharide galacto-N-biose (Gal-β-1,3-GalNAc; GNB) produced and purified in our laboratory as previously described.
(§2) Streptavidin microtiter plates were coated with biotinylated H type-1 antigen or LNB at 2 μg/ml with water and incubated for 1 hour at 37°C, followed by an overnight incubation at 4°C. Blocking assays were performed in parallel, using glass tubes containing the P[8]c and P[8]Wa VP8* protein at their EC50 for each ligand and 20 mM of each of the soluble disaccharides (LNB and GNB) and monosaccharides (D-galactose, GlcNAc and GalNAc). A positive binding control without sugar was also included. The tubes containing the mixes of VP8* with sugars were maintained 1 hour at 37°C, followed by an overnight incubation at 4°C. The next day the coated streptavidin plates were washed with PBS-T, the VP8*-sugar solutions were added to the plates and incubated during 4 hours at 4°C. The plates were washed three times with PBS-T and detection of the interactions was performed as described above. The results are presented as the percentage (%) of binding of each condition compared to the binding of the positive binding control (without blocking sugar). All experiments were performed in triplicate.

[3] = test system: VP8* P[8]c binding to LNB; experiment: Binding blocking assay, immobilized LNB; design: species or system human rotavirus; settings: soluble sugar at 20 mM
Method: as §1, §2

## CC(=O)NC1C(O)OC(CO)C(O)C1OC1OC(CO)C(O)C(O)C1O (stereo not drawn) [LNB, Gal-β1,3-GlcNAc]
[1]
  reduction of viral infection: 33%
[2]
  reduction in the binding to the H1 antigen: 24.2%
[3]
  reduction of the binding of VP8* P[8]c to LNB: 52.2%
